Source: ChEMBL document CHEMBL2062494, “Synthesis and biochemical evaluation of thiochromanone thiosemicarbazone analogues as inhibitors of cathepsin L” (ACS Med Chem Lett, 2012)

Key:
Procathepsin L = Procathepsin L (Homo sapiens, UniProt P07711); assay: Inhibition of human liver cathepsin L using Z-R-R-AMC as substrate preincubated with compound for 5 mins measured after 20 mins by fluorescence analysis
Cathepsin B = Cathepsin B (Homo sapiens, UniProt P07858); assay: Inhibition of human liver cathepsin B using Z-R-R-AMC as substrate preincubated with compound for 5 mins measured after 20 mins by fluorescence analysis

Chain of Procathepsin L (P07711 whole entry): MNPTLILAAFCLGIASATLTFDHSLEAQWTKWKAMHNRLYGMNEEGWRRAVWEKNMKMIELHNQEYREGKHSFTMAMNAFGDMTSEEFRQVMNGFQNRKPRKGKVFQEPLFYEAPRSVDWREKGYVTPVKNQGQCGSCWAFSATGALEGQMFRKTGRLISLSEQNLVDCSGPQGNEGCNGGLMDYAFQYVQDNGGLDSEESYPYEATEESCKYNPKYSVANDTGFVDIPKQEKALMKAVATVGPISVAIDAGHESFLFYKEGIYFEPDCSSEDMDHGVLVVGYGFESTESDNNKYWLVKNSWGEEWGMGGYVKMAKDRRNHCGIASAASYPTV

Row | Compound | IC50 (Procathepsin L) [µM] | IC50 (Cathepsin B) [µM]
1 | NC(=S)N/N=C1\CCSc2ccc(Cl)cc21 | 0.228 | > 10
2 | CSc1ccc2c(c1)/C(=N/NC(N)=S)CCS2 | > 10 | > 10
3 | NC(=S)N/N=C1\CCSc2ccc(O)cc21 | > 10 | > 10
4 | CC(=O)Nc1ccc2c(c1)/C(=N/NC(N)=S)CCS2 | > 10 | > 10
5 | NC(=S)N/N=C1\CCSc2ccc3ccccc3c21 | > 10 | > 10
6 | NC(=S)N/N=C1\CCS(=O)(=O)c2ccc(F)cc21 | > 10 | > 10
7 | NC(=S)N/N=C1\CCS(=O)(=O)c2ccc(Cl)cc21 | > 10 | > 10
8 | NC(=S)N/N=C1\CCS(=O)(=O)c2c(F)cc(F)cc21 | > 10 | > 10
9 | NC(=S)N/N=C1\CCS(=O)(=O)c2c(Br)cc(F)cc21 | > 10 | > 10
10 | Cc1ccc2c(c1)/C(=N/NC(N)=S)CCS2(=O)=O | > 10 | > 10
11 | CC(C)c1ccc2c(c1)/C(=N/NC(N)=S)CCS2(=O)=O | > 10 | > 10
12 | COc1ccc2c(c1)/C(=N/NC(N)=S)CCS2(=O)=O | > 10 | > 10
13 | CC(=O)Nc1ccc2c(c1)/C(=N/NC(N)=S)CCS2(=O)=O | > 10 | > 10
14 | NC(=S)NN=C1CCSc2ccc(N)cc21 (mixture of isomers) | > 10 | > 10
15 | NC(=S)NN=C1CCS(=O)(=O)c2ccc(O)cc21 (mixture of isomers) | > 10 | > 10

The next lines start with the values.

Row | IC50 (Procathepsin L) [µM] | IC50 (Cathepsin B) [µM] | Compound
16 | > 10 | > 10 | NC(=S)N/N=C1\CCSc2c(OC(F)(F)F)cccc21
17 | 0.741 | > 10 | NC(=S)N/N=C1\CCSc2ccc(F)cc21
18 | 0.152 | > 10 | NC(=S)N/N=C1\CCSc2ccc(Br)cc21
19 | 0.046 | > 10 | NC(=S)N/N=C1\CCSc2cc(F)c(F)cc21
20 | 1.5 | > 10 | NC(=S)N/N=C1\CCSc2c(F)cc(F)cc21
21 | > 10 | > 10 | NC(=S)N/N=C1\CCSc2c(Br)cc(F)cc21
22 | 0.434 | > 10 | NC(=S)N/N=C1\CCSc2c(F)cc(Br)cc21
23 | 0.214 | > 10 | Cc1ccc2c(c1)/C(=N/NC(N)=S)CCS2
24 | 2.72 | > 10 | CCc1ccc2c(c1)/C(=N/NC(N)=S)CCS2
25 | > 10 | > 10 | CC(C)c1ccc2c(c1)/C(=N/NC(N)=S)CCS2
26 | > 10 | > 10 | COc1ccc2c(c1)/C(=N/NC(N)=S)CCS2
27 | 0.284 | > 10 | NC(=S)N/N=C1\CCSc2ccc(C(F)(F)F)cc21
28 | 0.256 | > 10 | NC(=S)N/N=C1\CCSc2ccc(OC(F)(F)F)cc21
29 | 0.068 | > 10 | NC(=S)N/N=C1\CCSc2ccc([N+](=O)[O-])cc21
30 | 3.65 | > 10 | NC(=S)N/N=C1\CCS(=O)(=O)c2cc(F)c(F)cc21
31 | 1.12 | > 10 | NC(=S)N/N=C1\CCS(=O)(=O)c2c(F)cc(Br)cc21
32 | 6.52 | > 10 | CCc1ccc2c(c1)/C(=N/NC(N)=S)CCS2(=O)=O
33 | 0.26 | > 10 | NC(=S)N/N=C1\CCS(=O)(=O)c2ccc(C(F)(F)F)cc21
34 | 3.96 | > 10 | NC(=S)N/N=C1\CCS(=O)(=O)c2ccc(OC(F)(F)F)cc21
35 | 0.112 | > 10 | NC(=S)N/N=C1\CCS(=O)(=O)c2ccc([N+](=O)[O-])cc21
36 | 0.574 | > 10 | NC(=S)N/N=C1\CCS(=O)(=O)c2ccc(Br)cc21
